Data from the supplement of paper PMC11061612.

What was measured:
Assay in all cases: combination Emax (second highest fraction inhibited in the dose matrix, 72 h); higher = more inhibition; extreme values may be limits of the assay
[1] = system: FLO-1 (Esophageal Adenocarcinoma)
How it was run: (§1)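 Cell lines in DMEM/F12 or RPMI with 10% FBS were plated in 1536-well plates, held 24 hours at 37°C, 5% CO2, then given two-drug dose matrices for 72 hours (DMSO typically 0.2%). Viability was read by CellTiter-Glo 2.0 luminescence and scaled as inhibition from 0 (vehicle wells) to 1 (blank wells). Combination Emax is the second-highest inhibition in the matrix; Bliss excess is observed combination effect minus expected EA + EB − EA·EB, EA and EB being single-agent effects.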

[2] = system: KYSE-70 (Esophageal Squamous Cell Carcinoma)
How it was run: as §1

[3] = system: NCI-H1155 (Non-Small Cell Lung Carcinoma)
How it was run: as §1

[4] = system: NKM-1 (Acute Myeloid Leukemia)
How it was run: as §1

[5] = system: LAMA-84 (Chronic Myelogenous Leukemia)
How it was run: as §1

[6] = system: NCI-H1623 (Lung Adenocarcinoma)
How it was run: as §1

[7] = system: RL95-2 (Endometrial Carcinoma)
How it was run: as §1

[8] = system: SJRH30 (Rhabdomyosarcoma)
How it was run: as §1

[9] = system: Becker (Low Grade Glioma)
How it was run: as §1

[10] = system: BALL-1 (B-Lymphoblastic Leukemia)
How it was run: as §1

[11] = system: SNU-175 (Colorectal Carcinoma)
How it was run: as §1

[12] = system: CML-T1 (Chronic Myelogenous Leukemia)
How it was run: as §1

[13] = system: Caov-3 (Ovarian Carcinoma)
How it was run: as §1

[14] = system: NCI-H1563 (Lung Adenocarcinoma)
How it was run: as §1

[15] = system: HTC-C3 (Thyroid Gland Carcinoma)
How it was run: as §1

[16] = system: COLO-684 (Endometrial Carcinoma)
How it was run: as §1

786-0 (Kidney Carcinoma) = system: 786-0 (Kidney Carcinoma)
How it was run: as §1

[17] = system: NCI-H810 (Non-Small Cell Lung Carcinoma)
How it was run: as §1

RT4 (Bladder Carcinoma) = system: RT4 (Bladder Carcinoma)
How it was run: as §1

[18] = system: Calu-6 (Non-Small Cell Lung Carcinoma)
How it was run: as §1

Structure (SMILES) | combination Emax [1] | combination Emax [2] | combination Emax [3] | combination Emax [4] | combination Emax [5] | combination Emax [6] | combination Emax [7] | combination Emax [8] | combination Emax [9] | combination Emax [10] | combination Emax [11] | combination Emax [12] | combination Emax [13] | combination Emax [14] | combination Emax [15] | combination Emax [16] | combination Emax (786-0 (Kidney Carcinoma)) | combination Emax [17] | combination Emax (RT4 (Bladder Carcinoma)) | combination Emax [18]
Cc1c2c(nn1C)CSCc1cc(n(C)n1)CSc1cc(c3ccccc3c1)OCCCc1c(C(=O)O)n(C)c3c-2c(Cl)ccc13 [AZD5991] + CC1(C)CCC(CN2CCN(c3ccc(C(=O)NS(=O)(=O)c4ccc(NCC5CCOCC5)c([N+](=O)[O-])c4)c(Oc4cnc5[nH]ccc5c4)c3)CC2)=C(c2ccc(Cl)cc2)C1 [Venetoclax] (first compound max 1 µM, 7x7, partner max 1 µM) | 0.382 | 0.103 | 0.379 | 0.999 | 0.183 | 0.905 | 0.943 | 0.588 | 0.124 | 1 | 0.926 | 0.779 | 0.453 | 0.768 | 0.147 | 0.244 | 0.199 | 0.533 | 0.959 | 0.215
CC1(C)CCC(CN2CCN(c3ccc(C(=O)NS(=O)(=O)c4ccc(NCC5CCOCC5)c([N+](=O)[O-])c4)c(Oc4cnc5[nH]ccc5c4)c3)CC2)=C(c2ccc(Cl)cc2)C1 [Venetoclax] + Cc1cc2ncnn2cc1Nc1ncc2c(n1)n(C1CCOCC1)c(=O)n2C [AZD7648] (first compound max 1 µM, 7x7, partner max 10 µM) | 0.249 | 0.169 | 0.164 | 0.959 | 0.299 | 0.371 | 0.194 | 0.187 | 0.19 | 1 | 0.131 | 0.93 | 0.528 | 0.391 | 0.205 | 0.349 | 0.136 | 0.221 | 0.357 | 0.275
CC(=O)Nc1cccc(-n2c(=O)n(C3CC3)c(=O)c3c(Nc4ccc(I)cc4F)n(C)c(=O)c(C)c32)c1 [Trametinib] + Cc1nc(-c2cn3c(n2)-c2ccc(-c4cnn(C(C)(C)C(N)=O)c4)cc2OCC3)n(C(C)C)n1 [Taselisib] (first compound max 1 µM, 7x7, partner max 10 µM) | 0.665 | 0.804 | 0.348 | 1 | 1 | 1 | 0.588 | 0.947 | 0.678 | 0.532 | 0.627 | 0.465 | 0.836 | 0.793 | 0.744 | 0.57 | 0.613 | 0.121 | 0.734 | 0.987
CN(CCO)CC[C@H](CSc1ccccc1)Nc1ccc(S(=O)(=O)NC(=O)c2ccc(N3CCC([C@@H](O)c4ccccc4-c4ccc(Cl)cc4)CC3)cc2)cc1S(=O)(=O)C(F)(F)F [AZD4320] + C[C@@H](Nc1cc(F)cc(F)c1)c1cc(C(=O)N(C)C)cc2c(=O)cc(N3CCOCC3)oc12 [AZD8186] (first compound max 1 µM, 7x7, partner max 3 µM) | 0.486 | 0.211 | 0.97 | 1 | 0.728 | 0.865 | 0.253 | 0.457 | 0.431 | 1 | 0.908 | 1 | 0.911 | 0.565 | 0.407 | 0.396 | 0.415 | 0.592 | 0.583 | 0.592
COc1cccc(OCCCN)c1-c1cc(Nc2cnc(C#N)cn2)n[nH]1 [Prexasertib] + C=CCn1c(=O)c2cnc(Nc3ccc(N4CCN(C)CC4)cc3)nc2n1-c1cccc(C(C)(C)O)n1 [AZD1775] (first compound max 1 µM, partner max 1 µM) | 0.94 | 0.777 | 0.963 | 0.956 | 0.992 | 0.841 | 0.957 | 0.97 | 0.733 | 0.997 | 0.744 | 0.99 | 0.798 | 0.482 | 0.911 | 0.856 | 0.957 | 0.981 | 0.742 | 0.806
Cc1c2c(nn1C)CSCc1cc(n(C)n1)CSc1cc(c3ccccc3c1)OCCCc1c(C(=O)O)n(C)c3c-2c(Cl)ccc13 [AZD5991] + C[C@@H](Nc1cc(F)cc(F)c1)c1cc(C(=O)N(C)C)cc2c(=O)cc(N3CCOCC3)oc12 [AZD8186] (first compound max 1 µM, 7x7, partner max 3 µM) | 0.48 | 0.173 | 0.33 | 1 | 0.12 | 0.986 | 0.95 | 0.588 | 0.462 | 0.374 | 0.723 | 0.103 | 0.374 | 0.824 | 0.277 | 0.42 | 0.374 | 0.3 | 0.286 | 0.222
